These results are taken from patent US7345081B2, “Azabicyclo-octane inhibitors of IAP” (Genentech, Inc., priority 2004, dated 2008).

By pIC50 is commonly meant −log10 of the IC50, conventionally taken in molar units. One may read the pKi as −log10 of the Ki, conventionally taken in molar units.

Assay [1] concerns the target T1, MLXBIR3SG (Homo sapiens, UniProt Q96CA5, S150G).
T1 sequence (Q96CA5 with tags, fused parts or gaps S150G): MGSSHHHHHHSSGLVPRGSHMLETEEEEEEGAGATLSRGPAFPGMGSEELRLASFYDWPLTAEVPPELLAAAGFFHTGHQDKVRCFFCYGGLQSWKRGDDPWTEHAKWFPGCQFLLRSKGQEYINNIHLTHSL
The experiment in a line: TR-FRET peptide binding assay. Conditions: TR-FRET competition; 300 nM his-tagged MLXBIR3SG, 200 nM biotinylated SMAC peptide (AVPI). The protocol:
The improved caspase-9 inhibition of the chimeric BIR domain MLXBIR3SG has been correlated with increased inhibition of doxorubicin-induced apoptosis when transfected into MCF7 cells. TR-FRET Peptide Binding Assay Time-Resolved Fluorescence Resonance Energy Transfer competition experiments were performed on the Wallac Victor2 Multilabeled Counter Reader (Perkin Elmer Life and Analytical Sciences, Inc.) according to the procedures of Kolb et al (Journal of Biomolecular Screening, 1996, 1(4):203). A reagent cocktail containing 300 nM his-tagged MLXBIR3SG; 200 nM biotinylated SMAC peptide (AVPI); 5 μg/mL anti-his allophycocyanin (XL665) (CISBio International); and 200 ng/mL streptavidin-europium (Perkin Elmer) was prepared in reagent buffer (50 mM Tris [pH 7.2], 120 mM NaCl, 0.1% bovine globulins, 5 mM DTT and 0.05% octylglucoside). […] The reagent cocktail was incubated at room temperature for 30 minutes. […] After a 90 minute incubation at room temperature, the fluorescence was read with filters for the excitation of europium (340 nm) and for the emission wavelengths of europium (615 nm) and a allophycocyanin (665 nm). Antagonist data were calculated as a ratio of the emission signal of allophycocyanin at 665 nm to that of the emission of europium at 615 nm (these ratios were multiplied by a factor of 10,000 for ease of data manipulation). The resulting values were plotted as a function of antagonist concentration and fit to a 4-parameter equation using Kaleidograph software (Synergy Software, Reading, Pa.). Indications of antagonist potency were determined from the IC50 values.
A general note: Time-resolved FRET reads energy transfer from a long-lived donor to a nearby acceptor.

For assay [2], the target named is T1, MLXBIR3SG. The experiment in a line: Fluorescence polarization peptide binding assay. The conditions noted are these: fluorescence polarization competition; for pKi: Ki determined from the IC50 values; for pIC50: MLXBIR3SG at 30 nM, 5 nM AVP-diPhe-FAM probe. As to the method: The improved caspase-9 inhibition of the chimeric BIR domain MLXBIR3SG has been correlated with increased inhibition of doxorubicin-induced apoptosis when transfected into MCF7 cells. Fluorescence Polarization Peptide Binding Assay Polarization experiments were performed on an Analyst HT 96-384 (Molecular Devices Corp.) according to the procedure of […]., Zioncheck, K., Clark, K., Arellano, F., and Bodary., S.(2000) in Proceedings of SPIE : In Vitro Diagnostic Instrumentation (Cohn, G. E., Ed.) pp 128-137, Bellingham, Wash. […] Fluorescence values were plotted as a function of the protein concentration, and the IC50s were obtained by fitting the data to a 4-parameter equation using Kaleidograph software (Synergy software, Reading, Pa.). […] Samples were read after a 10-minute incubation. Fluorescence polarization values were plotted as a function of the antagonist concentration, and the IC50 values were obtained by fitting the data to a 4-parameter equation using Kaleidograph software (Synergy software, Reading, Pa.). Inhibition constants (Ki) for the antagonists were determined from the IC50 values.
(Polarisation of emitted light reports the rotation of a fluorescent probe.)

pIC50, pKi: −log10 of the molar value. Where only a bound is given, the exact number is not on record here.

Regarding `CN[C@@H](C)C(=O)N[C@H](C(=O)N1CCC2CCC(NC(=O)C3COc4ccccc43)C21)C(C)(C)C` (stereo partly drawn) [Compound 3], the pIC50 in assay [1] is more than 5.00.
For `CN[C@@H](C)C(=O)N[C@H](C(=O)N1CCC2CCC(NC(=O)C(c3ccccc3)c3ccc(F)cc3)C21)C(C)(C)C` (stereo partly drawn) [Compound 4], in assay [1], the pIC50 was more than 5.00. In assay [2], the pKi was more than 6.70 and the pIC50 was more than 6.00.
For the compound `COc1ccc2ccccc2c1C(=O)NC1CCC2CCN(C(=O)C(NC(=O)C(C)N)C(C)C)C21` (stereo not drawn) [Compound 5], the pIC50 in assay [1] is more than 5.00.
Regarding `CN[C@@H](C)C(=O)N[C@H](C(=O)N1CCC2CCC(NC(=O)c3ccc(C)c4ccccc34)C21)C(C)(C)C` (stereo partly drawn) [Compound 6], the pIC50 in assay [1] was more than 5.00. In assay [2], the pKi was more than 6.70 and the pIC50 is more than 6.00.
As to `CNC(C)C(=O)NC(C(=O)N1CCC2CCC(NC(=O)C(c3ccccc3)c3ccccc3)C21)C(C)(C)C` (stereo not drawn) [Compound 9], the pIC50 in assay [1] is more than 5.00.
With `CN[C@@H](C)C(=O)N[C@H](C(=O)N1CCC2CCC(NC(=O)c3coc4ccccc34)C21)C(C)(C)C` (stereo partly drawn) [Compound 11], the negative logarithm of the IC50 (pIC50) in assay [1] was more than 5.00.
Turning to `CN[C@@H](C)C(=O)N[C@H](C(=O)N1CCC2CCC(NC(=O)c3c(OC)ccc4ccccc34)C21)C(C)(C)C` (stereo partly drawn) [Compound 12], the pIC50 in assay [1] was more than 5.00. In assay [2], the pKi was more than 6.70 and the pIC50 is more than 6.00.
Turning to `C[C@H](N)C(=O)N[C@H](C(=O)N1CCC2CCC(NC(=O)c3cccc4ccccc34)C21)C(C)(C)C` (stereo partly drawn) [Compound 13], the pIC50 in assay [1] was more than 5.00.
For `CN[C@@H](C)C(=O)N[C@H](C(=O)N1CCC2CCC(NC(=O)c3ccccc3)C21)C(C)(C)C` (stereo partly drawn) [Compound 14], the negative logarithm of the IC50 (pIC50) in assay [1] was more than 5.00.
For the compound `CN[C@@H](C)C(=O)N[C@H](C(=O)N1CCC2CCC(NC(=O)c3csc4ccccc34)C21)C(C)(C)C` (stereo partly drawn) [Compound 16], in assay [1], the pIC50 was more than 5.00. Besides, in assay [2], the pKi is more than 6.70 and the pIC50 is more than 6.00.
`CN[C@@H](C)C(=O)N[C@H](C(=O)N1CCC2CCC(NC(=O)c3cccc4ccccc34)C21)C(C)(C)C` (stereo partly drawn) [Compound 21]: the pIC50 in assay [1] is more than 5.00.
As for `C[C@H](N)C(=O)N[C@H](C(=O)N1CCC2CCC(NC(=O)C(c3ccccc3)c3ccccc3)C21)C(C)(C)C` (stereo partly drawn) [Compound 22], the pIC50 in assay [1] was more than 5.00.
Regarding `CN[C@@H](C)C(=O)N[C@H](C(=O)N1CCC2CCC(NC(=O)c3ccc(F)c4ccccc34)C21)C(C)(C)C` (stereo partly drawn) [Compound 24], in assay [1], the pIC50 was more than 5.00. For the same compound, in assay [2], the pKi is more than 6.70 and the pIC50 was more than 6.00.
On to `CN[C@@H](C)C(=O)N[C@H](C(=O)N1CCC2CCC(NC(=O)c3cccc4ccccc34)C21)C1CCCCC1` (stereo partly drawn) [Compound 28], for which the pIC50 in assay [1] is more than 5.00.
